Experiments:
Experiment in all cases: cells
HOS = assay type: functional, cell-based, Homo sapiens; conditions: Homo sapiens, HOS
Description: SANGER: Inhibition of human HOS cell growth in a cell viability assay.

Daoy = assay type: functional, cell-based, Homo sapiens; conditions: Homo sapiens, Daoy
Description: SANGER: Inhibition of human Daoy cell growth in a cell viability assay.

ChaGo-K-1 = assay type: functional, cell-based; conditions: Homo sapiens
Description: SANGER: Inhibition of human ChaGo-K-1 cell growth in a cell viability assay.

COR-L88 = assay type: functional, cell-based; conditions: Homo sapiens
Description: SANGER: Inhibition of human COR-L88 cell growth in a cell viability assay.

MKN-28 = assay type: functional, cell-based, Homo sapiens; conditions: Homo sapiens, MKN-28
Description: SANGER: Inhibition of human MKN28 cell growth in a cell viability assay.

CAL-85-1 = assay type: functional, cell-based; conditions: Homo sapiens
Description: SANGER: Inhibition of human CAL-85-1 cell growth in a cell viability assay.

SK-UT-1 = assay type: functional, cell-based, Homo sapiens; conditions: Homo sapiens, SK-UT-1
Description: SANGER: Inhibition of human SK-UT-1 cell growth in a cell viability assay.

HCC70 = assay type: functional, cell-based, Homo sapiens; conditions: Homo sapiens, HCC70
Description: SANGER: Inhibition of human HCC70 cell growth in a cell viability assay.

HL-60 = assay type: functional, cell-based; conditions: Homo sapiens
Description: SANGER: Inhibition of human HL-60 cell growth in a cell viability assay.

TE-1 = assay type: functional, cell-based, Homo sapiens; conditions: Homo sapiens, TE-1
Description: SANGER: Inhibition of human TE-1 cell growth in a cell viability assay.

SF-295 = assay type: functional, cell-based, Homo sapiens; conditions: Homo sapiens, SF-295; read-out: IC50
Description: SANGER: Inhibition of human SF295 cell growth in a cell viability assay.

SHP77 = assay type: functional, cell-based, Homo sapiens, SHP-77; conditions: Homo sapiens, SHP77
Description: SANGER: Inhibition of human SHP-77 cell growth in a cell viability assay.

ES6 = assay type: functional, cell-based, Homo sapiens; conditions: Homo sapiens, ES6
Description: SANGER: Inhibition of human ES6 cell growth in a cell viability assay.

no-11 = assay type: functional, cell-based, Homo sapiens; conditions: Homo sapiens
Description: SANGER: Inhibition of human no-11 cell growth in a cell viability assay.

RXF 393 = assay type: functional, cell-based; conditions: Homo sapiens
Description: SANGER: Inhibition of human RXF393 cell growth in a cell viability assay.

KM12 = assay type: functional, cell-based, Homo sapiens; conditions: Homo sapiens, KM12
Description: SANGER: Inhibition of human KM12 cell growth in a cell viability assay.

HCE-T = assay type: functional, cell-based, Homo sapiens; conditions: Homo sapiens, HCE-T
Description: SANGER: Inhibition of human HCE-T cell growth in a cell viability assay.

KNS-81-FD = assay type: functional, cell-based, Homo sapiens; conditions: Homo sapiens, KNS-81-FD
Description: SANGER: Inhibition of human KNS-81-FD cell growth in a cell viability assay.

SW1463 = assay type: functional, cell-based, Homo sapiens; conditions: Homo sapiens, SW1463
Description: SANGER: Inhibition of human SW1463 cell growth in a cell viability assay.

D-247MG = assay type: functional, cell-based, Homo sapiens; conditions: Homo sapiens, D-247MG
Description: SANGER: Inhibition of human D-247MG cell growth in a cell viability assay.

COLO-320-HSR = assay type: functional, cell-based; conditions: Homo sapiens
Description: SANGER: Inhibition of human COLO-320-HSR cell growth in a cell viability assay.

ES8 = assay type: functional, cell-based, Homo sapiens; conditions: Homo sapiens, ES8
Description: SANGER: Inhibition of human ES8 cell growth in a cell viability assay.

H4 = assay type: functional, cell-based; conditions: Homo sapiens
Description: SANGER: Inhibition of human H4 cell growth in a cell viability assay.

GAK = assay type: functional, cell-based, Homo sapiens; conditions: Homo sapiens, GAK
Description: SANGER: Inhibition of human GAK cell growth in a cell viability assay.

MDA-MB-453 = assay type: functional, cell-based, Homo sapiens; conditions: Homo sapiens, MDA-MB-453
Description: SANGER: Inhibition of human MDA-MB-453 cell growth in a cell viability assay.

NCI-H2170 = assay type: functional, cell-based, Homo sapiens; conditions: Homo sapiens, NCI-H2170
A704 = assay type: functional, cell-based, Homo sapiens; conditions: Homo sapiens, A704
Description: SANGER: Inhibition of human A704 cell growth in a cell viability assay.

NCI-H747 = assay type: functional, cell-based; conditions: Homo sapiens
Description: SANGER: Inhibition of human NCI-H747 cell growth in a cell viability assay.

KNS-42 = assay type: functional, cell-based, Homo sapiens; conditions: Homo sapiens, KNS-42
Description: SANGER: Inhibition of human KNS-42 cell growth in a cell viability assay.

SK-LMS-1 = assay type: functional, cell-based, Homo sapiens; conditions: Homo sapiens, SK-LMS-1
Description: SANGER: Inhibition of human SK-LMS-1 cell growth in a cell viability assay.

WM-115 = assay type: functional, cell-based, Homo sapiens; conditions: Homo sapiens, WM-115
Description: SANGER: Inhibition of human WM-115 cell growth in a cell viability assay.

CAL-12T = assay type: functional, cell-based, Homo sapiens; conditions: Homo sapiens, CAL-12T
Description: SANGER: Inhibition of human CAL-12T cell growth in a cell viability assay.

NCI-H727 = assay type: functional, cell-based, Homo sapiens; conditions: Homo sapiens, NCI-H727
Description: SANGER: Inhibition of human NCI-H727 cell growth in a cell viability assay.

L-363 = assay type: functional, cell-based; conditions: Homo sapiens
Description: SANGER: Inhibition of human L-363 cell growth in a cell viability assay.

DU-4475 = assay type: functional, cell-based; conditions: Homo sapiens
Description: SANGER: Inhibition of human DU-4475 cell growth in a cell viability assay.

A-427 = assay type: functional, cell-based, Homo sapiens; conditions: Homo sapiens, A-427
Description: SANGER: Inhibition of human A427 cell growth in a cell viability assay.

AM-38 = assay type: functional, cell-based, Homo sapiens; conditions: Homo sapiens, AM-38
Description: SANGER: Inhibition of human AM-38 cell growth in a cell viability assay.

LS-123 = assay type: functional, cell-based, Homo sapiens; conditions: Homo sapiens, LS-123
Description: SANGER: Inhibition of human LS-123 cell growth in a cell viability assay.

DoTc2-4510 = assay type: functional, cell-based, Homo sapiens; conditions: Homo sapiens, DoTc2-4510
MC-IXC = assay type: functional, cell-based, Homo sapiens; conditions: Homo sapiens, MC-IXC
Description: SANGER: Inhibition of human MC-IXC cell growth in a cell viability assay.

TE-10 = assay type: functional, cell-based, Homo sapiens; conditions: Homo sapiens, TE-10
Description: SANGER: Inhibition of human TE-10 cell growth in a cell viability assay.

RCC10RGB = assay type: functional, cell-based, Homo sapiens; conditions: Homo sapiens, RCC10RGB
Description: SANGER: Inhibition of human RCC10RGB cell growth in a cell viability assay.

ML-2 = assay type: functional, cell-based; conditions: Homo sapiens
Description: SANGER: Inhibition of human ML-2 cell growth in a cell viability assay.

MDA-MB-157 = assay type: functional, cell-based, Homo sapiens; conditions: Homo sapiens, MDA-MB-157
Description: SANGER: Inhibition of human MDA-MB-157 cell growth in a cell viability assay.

BB65-RCC = assay type: functional, cell-based, Homo sapiens; conditions: Homo sapiens, BB65-RCC
Description: SANGER: Inhibition of human BB65-RCC cell growth in a cell viability assay.

NUGC-3 = assay type: functional, cell-based, Homo sapiens; conditions: Homo sapiens, NUGC-3
Description: SANGER: Inhibition of human NUGC-3 cell growth in a cell viability assay.

SCH = assay type: functional, cell-based, Homo sapiens; conditions: Homo sapiens, SCH
Description: SANGER: Inhibition of human SCH cell growth in a cell viability assay.

CAL-33 = assay type: functional, cell-based, Homo sapiens; conditions: Homo sapiens, CAL-33
Description: SANGER: Inhibition of human CAL-33 cell growth in a cell viability assay.

RD = assay type: functional, cell-based, Homo sapiens; conditions: Homo sapiens, RD
Description: SANGER: Inhibition of human RD cell growth in a cell viability assay.

NCI-H2405 = assay type: functional, cell-based, Homo sapiens; conditions: Homo sapiens, NCI-H2405
Description: SANGER: Inhibition of human NCI-H2405 cell growth in a cell viability assay.

NCI-H1304 = assay type: functional, cell-based; conditions: Homo sapiens
Description: SANGER: Inhibition of human NCI-H1304 cell growth in a cell viability assay.

LCLC-97TM1 = assay type: functional, cell-based, Homo sapiens; conditions: Homo sapiens, LCLC-97TM1
Description: SANGER: Inhibition of human LCLC-97TM1 cell growth in a cell viability assay.

## CCOc1nc(NC(=O)Cc2cc(OC)ccc2OC)cc(N)c1C#N
HOS
  IC50: > 10 µM
Daoy
  IC50: > 10 µM
ChaGo-K-1
  IC50: > 10 µM
COR-L88
  IC50: > 10 µM
MKN-28
  IC50: > 10 µM
CAL-85-1
  IC50: > 10 µM
SK-UT-1
  IC50: > 10 µM
HCC70
  IC50: > 10 µM
HL-60
  IC50: > 10 µM
TE-1
  IC50: > 10 µM
SF-295
  IC50: > 10 µM
SHP77
  IC50: > 10 µM
ES6
  IC50: > 10 µM
no-11
  IC50: > 10 µM
RXF 393
  IC50: > 10 µM
KM12
  IC50: > 10 µM
HCE-T
  IC50: > 10 µM
KNS-81-FD
  IC50: > 10 µM
SW1463
  IC50: > 10 µM
D-247MG
  IC50: > 10 µM
COLO-320-HSR
  IC50: > 10 µM
ES8
  IC50: > 10 µM
H4
  IC50: > 10 µM
GAK
  IC50: > 10 µM
MDA-MB-453
  IC50: > 10 µM
NCI-H2170
  IC50: > 10 µM
A704
  IC50: > 10 µM
NCI-H747
  IC50: > 10 µM
KNS-42
  IC50: > 10 µM
SK-LMS-1
  IC50: > 10 µM
WM-115
  IC50: > 10 µM
CAL-12T
  IC50: > 10 µM
NCI-H727
  IC50: > 10 µM
L-363
  IC50: > 10 µM
DU-4475
  IC50: > 10 µM
A-427
  IC50: > 10 µM
AM-38
  IC50: > 10 µM
LS-123
  IC50: > 10 µM
DoTc2-4510
  IC50: > 10 µM
MC-IXC
  IC50: > 10 µM
TE-10
  IC50: > 10 µM
RCC10RGB
  IC50: > 10 µM
ML-2
  IC50: > 10 µM
MDA-MB-157
  IC50: > 10 µM
BB65-RCC
  IC50: > 10 µM
NUGC-3
  IC50: > 10 µM
SCH
  IC50: > 10 µM
CAL-33
  IC50: > 10 µM
RD
  IC50: > 10 µM
NCI-H2405
  IC50: > 10 µM
NCI-H1304
  IC50: > 10 µM
LCLC-97TM1
  IC50: > 10 µM

## COC(=O)CNC(=O)C(=O)OC
HOS
  IC50: 636 µM
Daoy
  IC50: 247 µM
ChaGo-K-1
  IC50: 1560 µM
COR-L88
  IC50: 273 µM
MKN-28
  IC50: 1120 µM
CAL-85-1
  IC50: 108 µM
SK-UT-1
  IC50: 1050 µM
HCC70
  IC50: 306 µM
HL-60
  IC50: 157 µM
TE-1
  IC50: 1010 µM
SF-295
  IC50: 344 µM
SHP77
  IC50: 821 µM
ES6
  IC50: 3540 µM
no-11
  IC50: 208 µM
RXF 393
  IC50: 1260 µM
KM12
  IC50: 2240 µM
HCE-T
  IC50: 3440 µM
KNS-81-FD
  IC50: 1850 µM
SW1463
  IC50: 1780 µM
D-247MG
  IC50: 2410 µM
COLO-320-HSR
  IC50: > 4000 µM
ES8
  IC50: 673 µM
H4
  IC50: 177 µM
GAK
  IC50: 774 µM
MDA-MB-453
  IC50: > 4000 µM
NCI-H2170
  IC50: > 4000 µM
A704
  IC50: 1140 µM
NCI-H747
  IC50: > 4000 µM
KNS-42
  IC50: 229 µM
SK-LMS-1
  IC50: 120 µM
WM-115
  IC50: 220 µM
CAL-12T
  IC50: 26.6 µM
NCI-H727
  IC50: > 4000 µM
L-363
  IC50: 150 µM
DU-4475
  IC50: 899 µM
A-427
  IC50: 642 µM
AM-38
  IC50: 668 µM
LS-123
  IC50: > 4000 µM
DoTc2-4510
  IC50: 153 µM
MC-IXC
  IC50: 96.7 µM
TE-10
  IC50: 629 µM
RCC10RGB
  IC50: 1040 µM
ML-2
  IC50: 178 µM
MDA-MB-157
  IC50: 566 µM
BB65-RCC
  IC50: 2380 µM
NUGC-3
  IC50: 1480 µM
SCH
  IC50: > 4000 µM
CAL-33
  IC50: 242 µM
RD
  IC50: 692 µM
NCI-H2405
  IC50: 261 µM
NCI-H1304
  IC50: 533 µM
LCLC-97TM1
  IC50: 200 µM

## CN(C)C/C=C/C(=O)Nc1cc2c(Nc3ccc(F)c(Cl)c3)ncnc2cc1O[C@H]1CCOC1 [AFATINIB]
HOS
  IC50: […]
Daoy
  IC50: […]
ChaGo-K-1
  IC50: […]
COR-L88
  IC50: […]
MKN-28
  IC50: […]
CAL-85-1
  IC50: […]
SK-UT-1
  IC50: […]
HCC70
  IC50: […]
HL-60
  IC50: […]
TE-1
  IC50: […]
SF-295
  IC50: […]
SHP77
  IC50: […]
ES6
  IC50: […]
no-11
  IC50: […]
RXF 393
  IC50: […]
KM12
  IC50: […]
HCE-T
  IC50: […]
KNS-81-FD
  IC50: […]
SW1463
  IC50: […]
D-247MG
  IC50: […]
COLO-320-HSR
  IC50: […]
ES8
  IC50: […]
H4
  IC50: […]
GAK
  IC50: […]
MDA-MB-453
  IC50: […]
NCI-H2170
  IC50: 0.0373 µM
A704
  IC50: […]
NCI-H747
  IC50: […]
KNS-42
  IC50: […]
SK-LMS-1
  IC50: […]
WM-115
  IC50: […]
CAL-12T
  IC50: […]
NCI-H727
  IC50: […]
L-363
  IC50: […]
DU-4475
  IC50: […]
A-427
  IC50: […]
AM-38
  IC50: […]
LS-123
  IC50: […]
DoTc2-4510
  IC50: 0.322 µM
MC-IXC
  IC50: […]
TE-10
  IC50: […]
RCC10RGB
  IC50: […]
ML-2
  IC50: 0.248 µM
MDA-MB-157
  IC50: […]
BB65-RCC
  IC50: 0.346 µM
NUGC-3
  IC50: 0.384 µM
SCH
  IC50: […]
CAL-33
  IC50: 0.202 µM
RD
  IC50: […]
NCI-H2405
  IC50: […]
NCI-H1304
  IC50: […]
LCLC-97TM1
  IC50: […]

Source: ChEMBL document CHEMBL1201861, “Genomics of Drug Sensitity in Cancer screening data, Wellcome Trust Sanger Institute”
